Reference: patent US20240271138A1, “METHODS AND COMPOSITIONS FOR MODULATING STING SIGNALING AND INNATE IMMUNE RESPONSES” (The Broad Institute, Inc., priority 2021, published 2024)

Legend:
Format in all cases: cell-based, human
[1] = tested on: CD14+ monocytes; test: Immunoblot of phospho-STING in CD14+ monocytes from healthy donors; conditions: 5 μg/mL 2′3′-cGAMP, 6 hours, MLN7243, FIG. 12K
Text: FIGS. 12A-12O show involvement of ESCRT components in ubiquitination and degradation of STING. […] One representative blot of n=2 independent experiments. […] One representative plot of n=3 technical replicates. […] Each dot represents one technical replicate. Paired t-test, *** p<0.001. […] One representative plot of n=3 independent experiments with n=2 technical replicates per experiment. […] Each dot represents an individual replicate. One-way ANOVA with Dunnet's multiple comparisons. **** p<0.0001, *** p<0.001. […] FIGS. 12G-12J show immunofluorescence in 293T stably expressing STING-HA after stimulation with cGAMP for 2 hours. […] Dashed boxes represent the cropped regions shown in the right panels. One representative field of n≥5 fields in n=2 independent experiments. Scale bar is 10 μm. […] One representative blot of n=3 independent donors in n=2 independent experiments. […] One representative experiment of n=3 independent experiments with n=2 technical replicates. […] Friedman test with Dunn's multiple comparison test. **** p<0.0001, ** p<0.01, ns: not significant.
CD14+ monocytes were isolated from peripheral adult human blood as previously described 1. […]
Samples for pull-downs or immunoprecipitations were treated as described in the corresponding paragraphs. […] ECL signal was recorded on a ChemiDoc Biorad Imager. Data was analyzed with ImageLab (Biorad).

[2] = tested on: BJ1 fibroblasts; test: Immunoblot of STING signaling in BJ1 fibroblasts stimulated with cGAMP; conditions: cGAMP 2 hours, 0.5 μM MLN7243, FIG. 5D
Description: MLN7243 was added again after medium replacement. Cells were stimulated for the indicated times.
Samples for pull-downs or immunoprecipitations were treated as described in the corresponding paragraphs. For experiments involving seeding of cells in 6 well plates or 24 well plates (293 Ts and hTert-BJ1), one well per condition was harvested, lysed in RIPA buffer (Boston Bioproducts) containing complete, Mini, EDTA-free Protease Inhibitor Cocktail (Millipore Sigma) and PhosSTOP (Millipore Sigma) for 10 minutes on ice. Lysates were cleared by centrifugation at 16000 g for 10 minutes at 4° C. and Laemmli 6×, Sample buffer, SDS, and reducing agents (Boston Bioproducts) were added prior to loading. Samples were run on NuPAGE 4 to 12%, Bis-Tris Gels (Thermo Fisher) and transferred on nitrocellulose membrane with an iBlot2 (Thermo Fisher). Membranes were blocked in 5% non-fat milk in TBS Tween. Antibodies against phospho-proteins were incubated in 5% BSA TBS tween. ECL signal was recorded on a ChemiDoc Biorad Imager. Data was analyzed with ImageLab (Biorad).

[3] = tested on: 293T stably expressing STING-HA; test: Immunofluorescence of HGS, p62, CD63, LC3B and STING in 293T STING-HA after cGAMP; conditions: 293T STING-HA; cGAMP 2 hours; MLN7243; FIGS. 5E-5F
Description: 293T STING-TurboID were seeded directly on coverslips. 293T STING-HA were seeded on Fibronectin bovine plasma (Sigma-stock: 100×) coated coverslips. Cells were seeded the day before stimulation at 0.1 million cells/well density in 24 well plates. Cells were stimulated with cGAMP permeabilization buffer containing 1 μg/mL cGAMP for 10 minutes, washed with warm medium, and incubated for the indicated times. hTert-BJ1 mScarlet or mScarlet-UBAP1DN were seeded Fibronectin bovine plasma coated coverslips at 0.05 million cells/well density in a 24 well plate and fixed 6 hours post seeding. Cells were then fixed with 2% Paraformaldehyde (Electron Microscopy Sciences) in PHEM buffer (Electron Microscopy Sciences) for 30 minutes at 37° C., washed three times with PBS and quenched with freshly prepared 0.1M Glycine for 10 minutes. Coverslips were then permeabilized and blocked with 10% goat serum (Thermo Fisher) in PBS, 0.5% BSA (Seracare), 0.05% Saponin from Quillaja bark (Sigma) for 30 minutes. Coverslips were then stained with primary antibodies for 1-2 hours at room temperature in PBS, 0.5% BSA (Seracare), 0.05% Saponin from Quillaja bark (Sigma) with 10% goat serum, washed 5 times, and then stained with secondary antibodies in PBS, 0.5% BSA (Seracare), 0.05% Saponin from Quillaja bark (Sigma) for 1-2 hours. […] Images were analyzed in FiJi. […]

NS(=O)(=O)OC[C@H]1C[C@@H](Nc2ccnc3cc(-c4cccc(SC(F)(F)F)c4)nn23)[C@H](O)[C@@H]1O [MLN7243]
phospho-STING levels [1]: strong increase in phospho-STING levels
STING degradation [2]: abrogated STING degradation
lipidated LC3B [2]: induced accumulation of lipidated LC3B
phospho-STING signaling [2]: increased phospho-STING signaling
HGS co-localization with p62 [3]: failed to co-localize with p62
HGS foci co-localizing with STING [3]: completely lost
